Test results: ChEMBL document CHEMBL2176918, “Design and optimization of pyrazinecarboxamide-based inhibitors of diacylglycerol acyltransferase 1 (DGAT1) leading to a clinical candidate dimethylpyrazinecarboxamide phenylcyclohexylacetic acid (AZD7687)” (J Med Chem, 2012)
Converted amounts (≈) assume the structure as drawn.

Tests used:
Cytochrome P450 2C9 = Cytochrome P450 2C9 (Homo sapiens, UniProt P11712); assay: Inhibition of CYP2C9; type: ADME
[1] = molecular target: T1, Diacylglycerol O-acyltransferase 1 (Mus musculus, UniProt Q9Z2A7); assay: Inhibition of DGAT1 in mouse liver microsomes; parameters: species or system Microsome
T1 sequence (Q9Z2A7 whole entry): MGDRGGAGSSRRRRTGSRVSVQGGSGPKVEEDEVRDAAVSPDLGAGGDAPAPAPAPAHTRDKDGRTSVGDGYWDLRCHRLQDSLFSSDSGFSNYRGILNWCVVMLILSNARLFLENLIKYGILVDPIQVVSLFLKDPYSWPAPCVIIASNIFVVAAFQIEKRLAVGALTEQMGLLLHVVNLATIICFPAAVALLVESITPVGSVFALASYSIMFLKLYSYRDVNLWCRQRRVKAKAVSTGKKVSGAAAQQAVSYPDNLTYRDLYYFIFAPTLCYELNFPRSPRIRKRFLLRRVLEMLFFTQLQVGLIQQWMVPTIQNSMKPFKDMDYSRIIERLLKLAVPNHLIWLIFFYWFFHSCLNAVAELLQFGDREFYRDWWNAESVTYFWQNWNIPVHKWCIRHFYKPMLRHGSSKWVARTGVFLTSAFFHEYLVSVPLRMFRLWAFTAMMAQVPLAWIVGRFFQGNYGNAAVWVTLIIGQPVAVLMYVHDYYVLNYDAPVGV

[2] = Photostability stability by Hanau sun test; type: physicochemical
[3] = molecular target: T2, Sterol O-acyltransferase 2 (Homo sapiens, UniProt O75908); assay: Inhibition of human ACAT2 by liquid scintillography
T2 sequence (O75908 whole entry): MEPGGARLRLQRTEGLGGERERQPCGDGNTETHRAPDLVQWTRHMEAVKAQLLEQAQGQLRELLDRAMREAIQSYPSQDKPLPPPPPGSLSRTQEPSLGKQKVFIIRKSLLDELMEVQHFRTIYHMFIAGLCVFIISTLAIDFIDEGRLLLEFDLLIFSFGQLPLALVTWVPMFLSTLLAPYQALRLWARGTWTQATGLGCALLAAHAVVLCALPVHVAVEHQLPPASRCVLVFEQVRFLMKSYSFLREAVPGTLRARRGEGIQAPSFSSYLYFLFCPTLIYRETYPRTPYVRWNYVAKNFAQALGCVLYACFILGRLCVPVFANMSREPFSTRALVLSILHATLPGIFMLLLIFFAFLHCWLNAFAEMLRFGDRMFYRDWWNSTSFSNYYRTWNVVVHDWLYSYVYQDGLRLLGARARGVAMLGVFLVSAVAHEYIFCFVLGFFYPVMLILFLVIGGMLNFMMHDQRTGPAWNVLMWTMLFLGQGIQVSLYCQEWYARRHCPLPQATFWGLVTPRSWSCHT

[4] = Chemical stability in pH 1 to 10 buffer at 25 degC; type: physicochemical
[5] = molecular target: T3, Fatty-acid amide hydrolase 1 (Homo sapiens, UniProt O00519); assay: Inhibition of FAAH
T3 sequence (O00519 whole entry): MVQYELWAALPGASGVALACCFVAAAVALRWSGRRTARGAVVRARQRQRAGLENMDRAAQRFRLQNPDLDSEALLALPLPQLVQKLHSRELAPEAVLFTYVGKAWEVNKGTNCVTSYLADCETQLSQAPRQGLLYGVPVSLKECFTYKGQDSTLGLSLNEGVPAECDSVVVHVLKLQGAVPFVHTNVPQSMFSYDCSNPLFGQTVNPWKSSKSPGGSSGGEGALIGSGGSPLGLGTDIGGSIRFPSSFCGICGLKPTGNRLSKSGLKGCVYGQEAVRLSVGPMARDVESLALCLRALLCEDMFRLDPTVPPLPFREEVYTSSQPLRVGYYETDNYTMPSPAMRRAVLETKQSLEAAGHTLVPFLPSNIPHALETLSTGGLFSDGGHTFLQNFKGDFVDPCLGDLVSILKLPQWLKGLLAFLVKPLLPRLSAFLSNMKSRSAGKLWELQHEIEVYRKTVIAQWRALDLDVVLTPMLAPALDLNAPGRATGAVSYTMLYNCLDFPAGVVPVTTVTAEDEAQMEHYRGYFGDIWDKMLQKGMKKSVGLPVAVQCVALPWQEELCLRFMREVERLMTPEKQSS

[6] = molecular target: T4, Diacylglycerol O-acyltransferase 1 (Homo sapiens, UniProt O75907); assay: Inhibition of DGAT1 in human liver microsomes; parameters: species or system Microsome
T4 sequence (O75907 whole entry): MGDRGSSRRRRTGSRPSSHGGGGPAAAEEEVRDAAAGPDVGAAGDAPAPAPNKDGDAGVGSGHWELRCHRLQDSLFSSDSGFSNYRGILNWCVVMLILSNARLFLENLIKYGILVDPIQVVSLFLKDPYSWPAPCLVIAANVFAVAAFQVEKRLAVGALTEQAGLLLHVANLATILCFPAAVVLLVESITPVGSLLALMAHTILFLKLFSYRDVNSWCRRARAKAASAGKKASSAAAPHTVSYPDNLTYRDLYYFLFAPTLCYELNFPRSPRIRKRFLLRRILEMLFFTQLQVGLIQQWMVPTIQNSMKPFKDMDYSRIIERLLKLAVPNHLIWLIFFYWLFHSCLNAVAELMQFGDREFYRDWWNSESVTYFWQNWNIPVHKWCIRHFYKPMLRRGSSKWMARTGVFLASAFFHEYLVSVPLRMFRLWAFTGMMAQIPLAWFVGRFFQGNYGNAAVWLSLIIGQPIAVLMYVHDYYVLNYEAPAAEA

[7] = Solubility in 0.1 M phosphate buffer at pH 7.4 at 25 degC incubated for 24 hrs
[8] = molecular target: T5, Muscarinic acetylcholine receptor M2 (Homo sapiens, UniProt P08172); assay: Inhibition of muscarinic M2 receptor
T5 sequence (P08172 whole entry): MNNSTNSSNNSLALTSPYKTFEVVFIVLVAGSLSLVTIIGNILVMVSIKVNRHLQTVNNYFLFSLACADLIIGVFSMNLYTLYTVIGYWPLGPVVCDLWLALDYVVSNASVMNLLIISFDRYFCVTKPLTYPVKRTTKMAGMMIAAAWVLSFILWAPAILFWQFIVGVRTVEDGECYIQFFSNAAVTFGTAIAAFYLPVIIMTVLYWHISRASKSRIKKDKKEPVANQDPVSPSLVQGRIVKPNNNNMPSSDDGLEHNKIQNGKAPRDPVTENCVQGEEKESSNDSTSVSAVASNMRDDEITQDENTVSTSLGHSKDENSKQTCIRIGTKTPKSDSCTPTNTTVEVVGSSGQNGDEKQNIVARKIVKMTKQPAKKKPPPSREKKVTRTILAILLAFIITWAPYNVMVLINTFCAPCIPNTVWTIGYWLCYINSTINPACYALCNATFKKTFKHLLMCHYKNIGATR

[9] = Intrinsic clearance in mouse hepatocytes assessed as parent compound disappearance at 1 uM per 10^6 cells; type: ADME, cell-based, Hepatocyte; conditions: read-out: CLH
[10] = Volume of distribution in Han-Wistar rat at 5.4 uM/kg, po or 2.7 uM/kg, iv; type: ADME, organism-based; conditions: in vivo
[11] = Terminal half life in human at 1 to 20 mg; type: ADME, organism-based; conditions: in vivo, read-out: beta t1/2 (converted)
[12] = Apparent permeability from apical to basolateral side in MDCK cells at pH 7.4; conditions: dog
[13] = Half life in Han-Wistar rat at 2.54 to 5.4 uM/kg, po; type: ADME, organism-based; conditions: in vivo

Chain of Cytochrome P450 2C9 (P11712 whole entry): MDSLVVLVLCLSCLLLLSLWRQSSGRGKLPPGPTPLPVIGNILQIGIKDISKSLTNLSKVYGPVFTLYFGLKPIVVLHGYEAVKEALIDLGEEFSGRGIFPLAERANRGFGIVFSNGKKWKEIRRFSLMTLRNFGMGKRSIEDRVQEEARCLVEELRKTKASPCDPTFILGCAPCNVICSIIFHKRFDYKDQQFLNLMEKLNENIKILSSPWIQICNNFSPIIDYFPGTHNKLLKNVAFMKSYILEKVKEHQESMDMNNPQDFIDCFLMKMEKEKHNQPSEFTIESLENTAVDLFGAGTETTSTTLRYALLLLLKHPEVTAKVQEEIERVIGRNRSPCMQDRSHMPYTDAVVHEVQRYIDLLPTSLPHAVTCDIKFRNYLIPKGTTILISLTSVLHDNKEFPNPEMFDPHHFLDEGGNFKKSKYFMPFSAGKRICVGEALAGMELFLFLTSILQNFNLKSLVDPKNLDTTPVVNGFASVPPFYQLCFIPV

- IC50 (Cytochrome P450 2C9): > 30 µM
- IC50 [1]: 0.1 µM
- half-life [2]: 7.6 h
- IC50 [3]: > 10 µM
- half-life [4]: > 100 days
- IC50 [5]: 3.7 µM
- IC50 [6]: 0.07 µM
- solubility at 24 h [7]: 700 µM (≈ 257 µg/mL)
- IC50 [8]: 80.5 µM
- hepatocyte CLint at 1 µM [9]: 7.3 µL/min/1e6 cells
- Vd [10]: 0.35 L/kg
- half-life [11]: 9 h
- Papp A→B [12]: 12 ×10⁻⁶ cm/s
- half-life [13]: 14 h
SMILES: Cc1nc(C)c(-c2ccc(C3CCC(CC(=O)O)CC3)cc2)nc1C(N)=O (centres undefined) [AZD-7687]
